# Reference: patent US20070078620A1, “Methods and kits for delivering pharmaceutical agents into the coronary vascular adventitia” (Mercator MedSystems Inc., priority 2002, published 2007)
# Tests used:
# [1] = two injections of 0.5 mL 5% silver nitrate into each iliac artery; hematoxylin-eosin stained sections
# Text: The animal was sacrificed according to approved protocol following the last injection. The arteries were removed and placed in 10% formalin without perfusion. 2 mm segments were embedded in paraffin, sectioned, and hematoxylin-eosin stained.
# [2] = Distribution of a lipophilic compound (tacrolimus) after periadventitial delivery to coronary arteries, LC/MS of tissue; assay type: in vivo, swine; conditions: for concentration at 48 h: swine, in vivo
# Protocol: Distribution of a lipophilic compound (tacrolimus): Eight swine underwent angiography. […] The two remaining arteries served as untreated controls. An untreated heart was used as a negative control. At 48 hours arteries were dissected from the musculature and perivascular fat, cut into 5 mm sections and analyzed by Liquid Chromatography/Mass Spectrometry against tacrolimus calibration standards containing homogenized untreated porcine heart tissue.
Compound,staining: site of delivery and diffusion [1],"persistence of drug in the artery ([2]; 48 hours after injection, full length of the artery)","subjects with distribution to the entire coronary tree ([2]; periadventitial delivery, 48 hours)",concentration at 48 h ([2]; mean concentration in the remaining segments) [ng/g],concentration at 48 h ([2]; mean concentration within 1 cm of known injection sites) [ng/g],concentration at 48 h ([2]; mean level of tacrolimus in confirmed injected arteries) [ng/g],concentration at 48 h ([2]; mean level of tacrolimus in uninjected arteries of treated hearts) [ng/g]
O=[N+]([O-])[O-].[Ag+] [Silver Nitrate],delivery outside the external elastic lamina of the vessels and diffusion around the circumference,–,–,–,–,–,–
C=CC[C@@H]1/C=C(\C)C[C@H](C)C[C@H](OC)[C@H]2O[C@@](O)(C(=O)C(=O)N3CCCC[C@H]3C(=O)O[C@H](/C(C)=C/[C@@H]3CC[C@@H](O)[C@H](OC)C3)[C@H](C)[C@@H](O)CC1=O)[C@H](C)C[C@@H]2OC [tacrolimus],–,detectable,8/8,26,64,55,27
